Where two headings read alike, the source gives them in different places.
Legend:
[1] = cited from earlier work
[2] = Determination of GFR by FITC-inulin method in drug-treated mice; format: in vivo
Procedure: FITC-inulin (150 mg) was dissolved in 0.9% NaCl (3 ml) at 75° C. and dialysed in 0.9% NaCl (1000 ml) at room temperature for 24 h. Dialysed FITC-inulin (3.74 μl g^−1 […]), or at t=24, 36, 48, 96, or 144 h post-treatment of gentamicin (100 mg kg^−1 day^−1 body weight), or at t=2, 8, 16, 24, or 48 h post-treatment of diatrizoate (1000 mg kg^−1 body weight), or saline (0.2 ml) treated mice. Blood (approximately 20 μl) was collected via saphenous vein at 3, 7, 10, 15, 35, 55, and 75 min post-injection of FITC-inulin, and then centrifuged for 20 min at 3500 r.p.m. Serum sample (10 μl) was diluted with HEPES buffer (40 μl, 500 mM, pH 7.4) and fluorescence was measured using spectramax with excitation at 485 nm and emission at 538 nm. Serum fluorescence data were presented as a two-component exponential decay curve using nonlinear regression (3 mice were analysed for each sample). GFR was calculated according to the equation (Z. Qi, et al., Am. J. Physiol. Renal. Physiol. 2004, 286, F590-596): […], where I is the amount of FITC-inulin delivered by the bolus injection, A and B are the y-intercept values of the two decay rates, and α and β are the decay constants for the distribution and elimination phases, respectively.
FITC-inulin (150 mg) was dissolved in 0.9% NaCl (3 ml), heated at 75° C. and dialysed in 0.9% NaCl (1000 ml) at room temperature for 24 h. Dialysed FITC-inulin (3.74 μl g^−1 body weight) was i.v. injected into living mice at =2, 8, 16, 24, or 48 h post-treatment of diatrizoate (1 g kg^−1 body weight), or PBS (0.2 ml) treated mice, or NAC/DTZ co-treated mice. Blood (approximately 20 μl) was collected via tail vein at 3, 7, 10, 15, 35, 55, and 75 min post-injection of FITC-inulin, and then centrifuged for 15 min at 4500 r.p.m. Serum sample (10 μl) was diluted with PBS buffer (40 μl, 10 mM, pH 7.4) and fluorescence was measured using spectramax with excitation at 485 nm and emission at 538 nm. Serum fluorescence data were presented as a two-component exponential decay curve using nonlinear regression (3 mice were analysed for each sample). GFR was calculated according to the equation: […], where 1 is the amount of FITC-inulin delivered by the bolus injection, A and B are the y-intercept values of the two decay rates, and α and β are the decay constants for the distribution and elimination phases, respectively.

[3] = Commercial assays of serum and urinary kidney injury biomarkers in drug-treated mice; format: in vivo
Procedure: Urine was collected using metabolic cages from drug-treated mice at different timepoints post-treatment of drug. The collected urine samples were centrifuged at 4500 r.p.m. for 8 min and filtered by 0.22 μm syringe filter. MRPs1-3 solutions (30 μM) in PBS buffer (10 mM, pH 7.4) were incubated with the urine (100 μl) at 37° C., followed by fluorescence measurements on fluorescence spectrophotometer after 2 h incubation (9 mice were analysed for each sample). Urinary TFF3, osteopontin, NGAL, β2-Microglobulin, KIM-1, clusterin levels were quantified using ELISA kits according to the manufacturer's protocol (6 mice were analysed for each sample).
Blood was collected from the tail vein in living NCr nude mice under isoflurane anesthesia at t=8, 12, 16, 24, or 48 h post-treatment of cisplatin (20 mg kg^−1 body weight), or at t=24, 48, 72, 96, or 144 h post-treatment of gentamicin (100 mg kg^−1 day^−1 body weight), or at t=2, 8, 16, 24, or 48 h post-treatment of diatrizoate (1000 mg kg^−1 body weight), or saline (0.2 ml) treated mice. The collected blood samples were centrifuged for 20 min at 3500 r.p.m. Serum creatinine, BUN and cystatin C were determined using commercial kits according to the manufacturer's protocol (5 mice were analysed for each sample).
Blood was collected from the tail vein in living mice under isoflurane anesthesia at t=2, 8, 16, 24 or 48 h post-treatment of diatrizoate (1 g kg^−1 body weight), or PBS treated mice, or NAC/DTZ co-treated mice. The collected blood samples were centrifuged for 15 min at 4500 r.p.m. Serum creatinine and BUN were determined using commercial kits according to the manufacturer's protocol (3 mice were analysed for each sample).

[4] = Body weight of drug-treated mice; format: in vivo; conditions: BALB/c mice, single i.v. dose
Procedure: Mice were randomly selected and treated with cisplatin (5 mg kg^−1, 10 mg kg^−1 or 20 mg kg^−1 body weight, i.p. injection), gentamicin (100 mg kg^−1 day^−1, i.p. injection) or diatrizoate (1000 mg kg^−1 body weight, i.v injection, water deprivation for 24 h before treatment). The control groups were treated with saline (0.2 ml) or NAC (400 mg kg^−1 body weight, i.v injection) 30 min prior to cisplatin administration^50. Body weights of all the mice were recorded during treatment. After drug administration, the weight of mice and signs of discomfort were monitored on a daily basis during the entire experiments (FIG. 46). Imaging, blood and urine sampling were conducted at different timepoints post-treatment of drug. At the end, mice were euthanized and major organs were placed into 4% paraformaldehyde for histological examination.
For the doxorubicin model, dose-finding studies were first carried out to define an optimal dose of 10 mg kg^−1 body weight of doxorubicin. […] The corresponding MRP (40 mg kg^−1) was systematically injected through the tail vein at t=0, 2 d, 5 d, and 8 d post-treatment of DOX, and fluorescence images were acquired. […] Fluorescence images of living mice and urine samples were acquired for 0.1 s with excitation at 675±20 nm, and emission at 720±20 nm. Fluorescence images were analysed by ROI analysis using the Living Image 4.0 Software.

[5] = in DMSO; cited from earlier work
[6] = at first significant timepoint, initial studies
[7] = at first significant timepoint, subsequent studies

For `CNC(=O)c1c(I)c(NC(C)=O)c(I)c(C(=O)O)c1I` [Iothalamate], which Renal clearance efficiency ([1]; in 24 h, S.D rat) is on record?
The Renal clearance efficiency was 93.5% ID in 24 h.

Which Renal clearance efficiency ([1]; in 4 h, S.D rats) does the source give for `CC(=O)N(CC(O)CO)c1c(I)c(C(=O)NCC(O)CO)c(I)c(C(=O)NCC(O)CO)c1I` (stereo not drawn) [Iohexol] here?
The Renal clearance efficiency was 59.7% in 4 h.

With gentamicin as the compound, how does the “decrease in GFR at timepoint of sCr/BUN increase” value (“decrease … of sCr/BUN increase” for short) ([2]; 72 h cisplatin, 144 h gentamicin, 24 h diatrizoate) read?
The value was about 50%.

And the “urinary KIM-1 increase” value ([3]; at first significant timepoint)?
Its value is 2.2 fold.

What about the “urinary NGAL change” value ([3]; at first significant timepoint) of the same compound?
Its value is 2.0 fold.

What about the “urinary NGAL change, alternative value” ([3]; at first significant timepoint) of the same compound?
The value was 1.98 fold.

And the urinary clusterin increase ([3]; at first significant timepoint)?
The urinary clusterin increase was 3.5 fold.

And the urinary osteopontin change ([3]; at first significant timepoint)?
The urinary osteopontin change was 2.3 fold.

And the “urinary trefoil factor-3 change” value ([3]; at first significant timepoint)?
Its value is 0.3 fold.

What about the “urinary β2-microglobulin change” value ([3]; at first significant timepoint) of the same compound?
Its value is 3.2 fold.

What about the BUN increase [3, 6] of the same compound?
Its BUN increase is 2.23 fold.

What about the sCr increase [3, 6] of the same compound?
The sCr increase was 2.82 fold.

And the BUN increase [3, 7]?
The BUN increase was 2.4 fold.

What about the sCr increase [3, 7] of the same compound?
Its sCr increase is 2.9 fold.

What about the “time of first statistically significant change of urinary NGAL and trefoil factor-3” value ([3]; mouse, in vivo) of the same compound?
Its value is 96 h.

And the “time of first statistically significant increase of urinary KIM-1 and clusterin” value ([3]; mouse, in vivo)?
Its value is 72 h.

What about the “time of statistically significant change of urinary osteopontin” value ([3]; mouse, in vivo) of the same compound?
Its value is 144 h.

And the “time of statistically significant change of urinary β2-microglobulin” value ([3]; mouse, in vivo)?
Its value is 144 h.

What about the “time of statistically significant increase of sCr and BUN after treatment” value ([3]; nephrotoxic dose, mice) of the same compound?
The value was 144 h.

Which “decrease in GFR at 24 h post-treatment” value ([2]; mouse, in vivo) does the source give for `CC(=O)Nc1c(I)c(NC(C)=O)c(I)c(C(=O)O)c1I` [diatrizoate] here?
Its value is about 40%.

What about the “decrease in GFR at 48 h post-treatment” value ([2]; mouse, in vivo) of the same compound?
Its value is about 60%.

And the “decrease … of sCr/BUN increase” value ([2]; mouse, in vivo)?
The value was about 50%.

What about the “BUN relative to control groups” value ([3]; mouse, in vivo) of the same compound?
Its value is 1.8 fold.

And the “sCr relative to control groups” value ([3]; mouse, in vivo)?
Its value is 1.7 fold.

What about the “time of first statistically significant change of urinary NGAL and trefoil factor-3” value ([3]; mouse, in vivo) of the same compound?
The value was 24 h.

And the “time of first statistically significant increase of urinary KIM-1 and clusterin” value ([3]; mouse, in vivo)?
Its value is 24 h.

What about the “time of statistically significant change of urinary osteopontin” value ([3]; mouse, in vivo) of the same compound?
The value was 24 h.

What about the “time of statistically significant change of urinary β2-microglobulin” value ([3]; mouse, in vivo) of the same compound?
Its value is 48 h.

And the “time of statistically significant increase of sCr and BUN after treatment” value ([3]; mouse, in vivo)?
Its value is 24 h.

What about the “urinary KIM-1 increase” value ([3]; mouse, in vivo) of the same compound?
Its value is 3.7 fold.

And the “urinary NGAL change” value ([3]; mouse, in vivo)?
Its value is 2.3 fold.

And the “urinary NGAL change, alternative value” ([3]; mouse, in vivo)?
The value was 2.05 fold.

What about the urinary clusterin increase ([3]; mouse, in vivo) of the same compound?
The urinary clusterin increase was 3.0 fold.

And the urinary osteopontin change ([3]; mouse, in vivo)?
The urinary osteopontin change was 2.3 fold.

And the “urinary trefoil factor-3 change” value ([3]; mouse, in vivo)?
Its value is 0.5 fold.

What about the “urinary β2-microglobulin change” value ([3]; mouse, in vivo) of the same compound?
Its value is 3.6 fold.

Which “decrease … of sCr/BUN increase” value ([2]; mouse, in vivo) does the source give for `N.N.[Cl][Pt][Cl]` [cisplatin] here?
Its value is about 50%.

And the “time of first statistically significant change of urinary NGAL and trefoil factor-3” value ([3]; mouse, in vivo)?
Its value is 48 h.

And the “time of first statistically significant increase of urinary KIM-1 and clusterin” value ([3]; mouse, in vivo)?
The value was 24 h.

What about the “time of increase of serum Cystatin C” value ([3]; mouse, in vivo) of the same compound?
Its value is 48 h.

And the “time of statistically significant change of urinary osteopontin” value ([3]; mouse, in vivo)?
Its value is 72 h.

What about the “time of statistically significant change of urinary β2-microglobulin” value ([3]; mouse, in vivo) of the same compound?
The value was 72 h.

And the “time of statistically significant increase of sCr and BUN after treatment” value ([3]; mouse, in vivo)?
Its value is 72 h.

What about the “urinary KIM-1 increase” value ([3]; mouse, in vivo) of the same compound?
The value was 1.9 fold.

What about the “urinary NGAL change” value ([3]; mouse, in vivo) of the same compound?
The value was 2.7 fold.

What about the “urinary NGAL change, alternative value” ([3]; mouse, in vivo) of the same compound?
Its value is 2.72 fold.

What about the urinary clusterin increase ([3]; mouse, in vivo) of the same compound?
Its urinary clusterin increase is 4.1 fold.

And the urinary osteopontin change ([3]; mouse, in vivo)?
The urinary osteopontin change was 2.3 fold.

What about the “urinary trefoil factor-3 change” value ([3]; mouse, in vivo) of the same compound?
Its value is 0.4 fold.

And the “urinary β2-microglobulin change” value ([3]; mouse, in vivo)?
The value was 3.9 fold.

For `CNC(=O)CN(CCN(CCN(CC(=O)[O-])CC(=O)NC)CC(=O)[O-])CC(=O)[O-].[Gd+3]` [Gd-DTPA-BMA], which Renal clearance efficiency ([1]; in 24 h, S.D Rats) is on record?
The Renal clearance efficiency was 95% in 24 h.

For `COc1cccc2c1C(=O)c1c(O)c3c(c(O)c1C2=O)C[C@@](O)(C(=O)CO)C[C@@H]3O[C@H]1C[C@H](N)[C@H](O)[C@H](C)O1` [DOX, doxorubicin], which “mean body weight gain by day 16” value [4] is on record?
Its value is 3%.

What about the “mean body weight loss by day 8” value [4] of the same compound?
The value was “approximately 6%”.

Which “fluorescence quantum yield (ϕ) of standard” value [5] does the source give for `CC1(C)C(/C=C/C=C/C=C/C=C2\N(CCCCS(=O)(=O)[O-])c3ccc4ccccc4c3C2(C)C)=[N+](CCCCS(=O)(=O)[O-])c2ccc3ccccc3c21.[Na+]` [ICG] here?
The value was 13%.

Source: patent US12296027B2, “Molecular renal probes for detecting acute kidney injury” (Nanyang Technological University, priority 2019, dated 2025)
